Experimental data reported in patent US12655116B2, “Substituted isophthalic acid diamides” (Bayer Aktiengesellschaft, priority 2020, dated 2026).

What was measured:
ABUTH [1] = test: Pre-emergence herbicidal action against ABUTH; format: in vivo, Abutilon theophrasti; details: Abutilon theophrasti, 504 h
Method in brief: (§1)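 Seeds sown in sandy loam, soil-covered; compound sprayed on soil surface pre-emergence. Application: WP/EC, 600–800 l/ha, 0.2% wetting agent. Readout: visual % damage at 3 weeks.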

ALOMY [2] = test: Pre-emergence herbicidal action against ALOMY; format: in vivo, Alopecurus myosuroides; details: Alopecurus myosuroides, 504 h, pre-emergence
Method in brief: as §1

AMARE [3] = test: Pre-emergence herbicidal action against AMARE; format: in vivo, Amaranthus retroflexus; details: Amaranthus retroflexus, 504 h, scored visually after 3 weeks vs untreated controls, 100% = plants have died, 0% = like control plants
Method in brief: as §1

AVEFA [4] = test: Pre-emergence herbicidal action against AVEFA; format: in vivo, Avena fatua; details: Avena fatua, 504 h, pre-emergence
Method in brief: as §1

ECHCG [5] = test: Pre-emergence herbicidal action against ECHCG; format: in vivo, Echinochloa crus-galli; details: Echinochloa crus-galli, 504 h
Method in brief: as §1

HORMU = test: Pre-emergence herbicidal action against HORMU; format: in vivo, Hordeum murinum
Method in brief: as §1

LOLRI = test: Pre-emergence herbicidal action against LOLRI; format: in vivo, Lolium rigidum; details: Lolium rigidum, 504 h, 80 g/ha
Method in brief: as §1

MATIN [6] = test: Pre-emergence herbicidal action against MATIN; format: in vivo, Matricaria inodora; details: Tripleurospermum inodorum, 504 h
Method in brief: as §1

SETVI = test: Pre-emergence herbicidal action against SETVI; format: in vivo, Setaria viridis; details: Setaria viridis, 504 h
Method in brief: as §1

STEME [7] = test: Pre-emergence herbicidal action against STEME; format: in vivo, Stellaria media; details: Stellaria media, 504 h
Method in brief: as §1

VERPE = test: Pre-emergence herbicidal action against VERPE; format: in vivo, Veronica persica; details: Veronica persica, 504 h, dosage 80 g/ha
Method in brief: as §1

VIOTR [8] = test: Pre-emergence herbicidal action against VIOTR; format: in vivo, Viola tricolor; details: Viola tricolor, 504 h
Method in brief: as §1

DIGSA [9] = test: Pre-emergence herbicidal action against DIGSA; format: in vivo, Digitaria sanguinalis; details: Digitaria sanguinalis, 504 h
Method in brief: as §1

ABUTH [10] = test: Post-emergence herbicidal action against ABUTH; format: in vivo, Abutilon theophrasti; details: Abutilon theophrasti, 504 h, visual assessment about 3 weeks after treatment vs untreated controls
Method in brief: (§2)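 Percent herbicidal action is rated by eye about 3 weeks after treatment against untreated controls, where 100% means dead plants and 0% means like controls. Plants in sandy loam are sprayed on green parts at the one-leaf stage with aqueous WP or EC preparations at 600 to 800 l/ha plus 0.2% wetting agent.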

ALOMY [11] = test: Post-emergence herbicidal action against ALOMY; format: in vivo, Alopecurus myosuroides; details: Alopecurus myosuroides, 504 h, dosage 20 g/ha, visual assessment about 3 weeks after treatment vs untreated controls
Method in brief: as §2

AMARE [12] = test: Post-emergence herbicidal action against AMARE; format: in vivo, Amaranthus retroflexus; details: Amaranthus retroflexus, 504 h, 20 g/ha, visual assessment about 3 weeks after treatment, 100% = plants have died, 0% = like control plants
Method in brief: as §2

AVEFA [13] = test: Post-emergence herbicidal action against AVEFA; format: in vivo, Avena fatua; details: Avena fatua, 504 h, 20 g/ha, visual assessment about 3 weeks after treatment, 100% = plants have died, 0% = like control plants
Method in brief: as §2

ECHCG [14] = test: Post-emergence herbicidal action against ECHCG; format: in vivo, Echinochloa crus-galli; details: Echinochloa crus-galli, 504 h, dosage 20 g/ha
Method in brief: as §2

MATIN [15] = test: Post-emergence herbicidal action against MATIN; format: in vivo, Matricaria inodora; details: Tripleurospermum inodorum, 504 h, dosage 20 g/ha
Method in brief: as §2

POLCO = test: Post-emergence herbicidal action against POLCO; format: in vivo, Polygonum convolvulus; details: Fallopia convolvulus, 504 h, dosage 20 g/ha
Method in brief: as §2

STEME [16] = test: Post-emergence herbicidal action against STEME; format: in vivo, Stellaria media; details: Stellaria media, 504 h
Method in brief: as §2

VIOTR [17] = test: Post-emergence herbicidal action against VIOTR; format: in vivo, Viola tricolor; details: Viola tricolor, 504 h
Method in brief: as §2

DIGSA [18] = test: Post-emergence herbicidal action against DIGSA; format: in vivo, Digitaria sanguinalis; details: Digitaria sanguinalis, 504 h
Method in brief: as §2

[19] = 80 g/ha, scored visually after 3 weeks vs untreated controls (100% = plants have died, 0% = like control plants)
[20] = 20 g/ha, scored visually after 3 weeks, 100% = plants have died, 0% = like control plants

`CCNC(=O)c1c(C(F)(F)F)ccc(C(=O)Nc2nnnn2CC)c1Cl` [Example 2-130] gave a pest or weed control at 80 g/ha (ABUTH [1]; [19]) of 100%, a pest or weed control at 20 g/ha (ABUTH [1]; dosage 20 g/ha, scored visually after 3 weeks vs untreated controls, 100% = plants have died, 0% = like control plants, read-out: Pre-emergence action against ABUTH (herbicidal activity in percent)) of 100% and a pest or weed control at 80 g/ha (ALOMY [2]; [19]) of 100%. The pest or weed control at 20 g/ha (ALOMY [2]; [20]) was 90%, the pest or weed control at 20 g/ha (AMARE [3]; 20 g/ha) was 100% and the pest or weed control at 80 g/ha (AMARE [3]; 80 g/ha) was 100%. The pest or weed control at 80 g/ha (AVEFA [4]; 80 g/ha) was 100%, the pest or weed control at 20 g/ha (AVEFA [4]; [20]) was 90% and the pest or weed control at 20 g/ha (ECHCG [5]; 20 g/ha) was 80%. For the same compound, the pest or weed control at 80 g/ha (ECHCG [5]; 80 g/ha) was 100%, the “Pre-emergence action against HORMU” value (HORMU; [20]) was 90% and the pest or weed control at 80 g/ha (HORMU; Hordeum murinum, 504 h, 80 g/ha, pre-emergence) was 100%. It also gave a pest or weed control at 80 g/ha (LOLRI) of 100%, a pest or weed control at 20 g/ha (MATIN [6]; dosage 20 g/ha) of 100% and a pest or weed control at 80 g/ha (MATIN [6]; dosage 80 g/ha) of 100%. It also gave a pest or weed control at 20 g/ha (SETVI; dosage 20 g/ha) of 90%, a pest or weed control at 80 g/ha (SETVI; dosage 80 g/ha) of 100% and a pest or weed control at 20 g/ha (STEME [7]; dosage 20 g/ha) of 100%. The pest or weed control at 80 g/ha (STEME [7]; dosage 80 g/ha) was 100%, the pest or weed control at 80 g/ha (VERPE) was 80% and the pest or weed control at 20 g/ha (VIOTR [8]; dosage 20 g/ha) was 100%. It also gave a pest or weed control at 80 g/ha (VIOTR [8]; dosage 80 g/ha) of 100%, a pest or weed control at 20 g/ha (DIGSA [9]; dosage 20 g/ha) of 100% and a pest or weed control at 80 g/ha (DIGSA [9]; dosage 80 g/ha) of 100%. For the same compound, the pest or weed control at 5 g/ha (ABUTH [10]; dosage 5 g/ha) was 90%, the pest or weed control at 20 g/ha (ABUTH [10]; dosage 20 g/ha) was 90% and the pest or weed control at 20 g/ha (ALOMY [11]) was 80%. It also gave a pest or weed control at 20 g/ha (AMARE [12]) of 100%, a pest or weed control at 20 g/ha (AVEFA [13]) of 90% and a pest or weed control at 20 g/ha (ECHCG [14]) of 80%. It also gave a pest or weed control at 20 g/ha (MATIN [15]) of 80%, a pest or weed control at 20 g/ha (POLCO) of 80% and a pest or weed control at 20 g/ha (STEME [16]; 20 g/ha) of 80%. For the same compound, the pest or weed control at 5 g/ha (STEME [16]; dosage 5 g/ha) was 80%, the pest or weed control at 5 g/ha (VIOTR [17]; 5 g/ha) was 90% and the pest or weed control at 20 g/ha (VIOTR [17]; 20 g/ha) was 100%. The pest or weed control at 5 g/ha (DIGSA [18]; 5 g/ha) was 80% and the pest or weed control at 20 g/ha (DIGSA [18]; 20 g/ha) was 80%.
